# According to patent US5627152A, “Method for increasing bodyweight” (Telluride Pharmaceutical Corporation, priority 1995, dated 1997):
# How the values were obtained:
# [1] = Oral glutathione capsules in healthy subjects: bodyweight and percent bodyfat by the caliper method; format: in vivo, human; conditions: for percentage bodyfat at end of treatment: caliper method
# Experimental: A healthy subject who wished to gain more weight in the form of lean muscle tissue, was treated for five weeks with one capsule containing 250 mg glutathione four times daily resulting in a total daily dosage of 1000 mg glutathione.
# A healthy subject who wished to add bodyweight in the form of lean muscle, was treated for seven weeks with one capsule containing 500 mg of glutathione, four times per day. The totally daily dose was 2,000 mg of glutathione.
# A […] healthy male subject who wished to add bodyweight in the form of lean muscle, was treated for seven weeks with two capsule of 500 mg of glutathione, three times per day. The totally daily dose was 3,000 mg of glutathione.
# A healthy subject who wished to add bodyweight in the form of lean muscle was treated for six weeks with two capsules containing 500 mg of glutathione, twice daily. The totally daily dose was 2,000 mg of glutathione.
# guinea pigs = conditions: high doses; cited from earlier work
smiles,measurement,setting,value
"N[C@@H](CCC(=O)N[C@@H](CS)C(=O)NCC(=O)O)C(=O)O [glutathione, -L-glutamyl-cysteinylglycine]",percentage bodyfat at end of treatment,"[1]; Example 1: 1000 mg/day, five weeks, start 20.1%",18.6%
same,fat at end of treatment,"[1]; Example 1: 1000 mg/day, five weeks, start 25 pounds",24 pounds
same,"muscle, bone and connective tissue at end of treatment","[1]; Example 1: 1000 mg/day, five weeks, start 100 pounds",105 pounds
same,percent change in lean bodyweight (gain),"[1]; Example 1: 1000 mg/day, five weeks, without a change in diet or exercise regimen",5%
same,bodyweight at end of treatment,"[1]; Example 1: healthy person, 250 mg capsule four times daily (1000 mg/day), five weeks, start 125 pounds",129 pounds
same,percentage bodyfat at end of treatment,"[1]; Example 2: 2,000 mg/day, seven weeks, start 24.9%",22.3%
same,fat at end of treatment,"[1]; Example 2: 2,000 mg/day, seven weeks, start 55 pounds",55 pounds
same,"muscle, bone and connective tissue at end of treatment","[1]; Example 2: 2,000 mg/day, seven weeks, start 165 pounds",193 pounds
same,percent change in lean body weight,"[1]; Example 2: 2,000 mg/day, seven weeks, without a change in diet or exercise regimen",17%
same,bodyweight at end of treatment,"[1]; Example 2: healthy person, 500 mg capsule four times per day (2,000 mg/day), seven weeks, start 220 pounds",248 pounds
same,percentage bodyfat at end of treatment,"[1]; Example 3: 3,000 mg/day, seven weeks, start 18.5%",15.1%
same,percent change in lean body weight,"[1]; Example 3: 3,000 mg/day, seven weeks, no change in diet or exercise regimen",24.2%
same,fat at end of treatment,"[1]; Example 3: 3,000 mg/day, seven weeks, start 38 pounds",36 pounds
same,"muscle, bone and connective tissue at end of treatment","[1]; Example 3: 3,000 mg/day, seven weeks, start 165 pounds",205 pounds
same,bodyweight at end of treatment,"[1]; Example 3: healthy person, two 500 mg capsules three times per day (3,000 mg/day), seven weeks, start 203 pounds",241 pounds
same,percentage bodyfat at end of treatment,"[1]; Example 4: 2,000 mg/day, six weeks, start 17.2%",14.9%
same,fat at end of treatment,"[1]; Example 4: 2,000 mg/day, six weeks, start 36 pounds",36 pounds
same,"muscle, bone and connective tissue at end of treatment","[1]; Example 4: 2,000 mg/day, six weeks, start 176 pounds",203 pounds
same,percent change in lean body weight,"[1]; Example 4: 2,000 mg/day, six weeks, with a change in diet or exercise regimen (so in the source)",15.3%
same,bodyweight at end of treatment,"[1]; Example 4: healthy person, two 500 mg capsules twice daily (2,000 mg/day), six weeks, start 212 pounds",239 pounds
same,effect on bodyweight (cachexia),guinea pigs,promote cachexia
